Test results published in US20200405752A1, “ANTITUMOR AGENT, ANTITUMOR EFFECT ENHANCER, AND ANTITUMOR KIT” (FUJIFILM Corporation, priority 2018, published 2020).

System: human ovarian cancer cell line SK-OV-3
Assay: Cell viability (CellTiter Glo) of SK-OV-3 in combination with cisplatin or carboplatin
Format: cell-based
Conditions: for viability at 0.001 µM / viability at 0.003 µM / viability at 0.01 µM / viability at 0.03 µM / viability at 0.1 µM / viability at 0.3 µM / viability at 1 µM / viability at 3 µM / viability at 10 µM / IC50: Homo sapiens; for viability at 0.001 µM / viability at 0.003 µM / viability at 0.01 µM / viability at 0.03 µM / viability at 0.1 µM / viability at 0.3 µM / viability at 1 µM / viability at 3 µM / viability at 10 µM: SK-OV-3, 72 h, 3 days; for viability at 0.001 µM: test substance 1 nM; for viability at 0.003 µM: test substance 3 nM; for viability at 0.01 µM: test substance 10 nM; for viability at 0.03 µM: test substance 30 nM; for viability at 0.1 µM: test substance 100 nM; for viability at 0.3 µM: test substance 300 nM; for viability at 1 µM: test substance 1000 nM; for viability at 3 µM: test substance 3000 nM; for viability at 10 µM: test substance 10000 nM; for IC50: SK-OV-3, SK-OV-3; for CI: SK-OV-3 Cell
Excerpt: On the combinational effect of the embodiment of the invention, the results of evaluation using a combination index (CI) which is a quantitative index of the combinational effect are shown. The CI can be calculated by the following equation according to Cancer Research, 2010, Vol. 70, pp. 440 to 446.
That is, in a case where the drugs to be used in combination are drug 1 and drug 2, the CI at a certain drug concentration is
CI={(cell viability in case of using drug 1 and drug 2 in combination)/100}/{[(cell viability in case of using drug 1)/100]×[(cell viability in case of using drug 2)/100]}
Evaluation of antitumor activity against human ovarian cancer cell lines ES-2 and SK-OV-3 in combination with cisplatin and carboplatin
Furthermore, the antitumor activity against human ovarian cancer-derived cell lines ES-2 and SK-OV-3 in combination with cisplatin and carboplatin was evaluated in the same manner as in Test Example 1.
Gemcitabine, cisplatin, carboplatin, and methanesulfonate of Compound A were used as test substances.
Gemcitabine hydrochloride (manufactured by Plantex Co., Ltd.) dissolved in DMSO was used as gemcitabine. Cisplatin (Cat. #039-20091, manufactured by Wako Pure Chemical Industries, Ltd.) and carboplatin (Cat. #C2043, manufactured by Tokyo Chemical Industry Co., Ltd.), each of which dissolved in McCoy's 5a medium (Cat. #16600-082, manufactured by Thermo Fisher Scientific Inc.) supplemented with 1% serum (Cat. #10437-028, manufactured by Thermo Fisher Scientific Inc.), were used as cisplatin and carboplatin, respectively.
Human ovarian cancer cell line ES-2 and SK-OV-3 cells were subcultured in 10% serum-supplemented medium. During this test, all cell cultures were carried out in a CO2 incubator (set to 37° C. and 5% CO2, saturated with water vapor). ES-2 cells were diluted with 10% serum-supplemented medium to a cell density of 10000 cells/well/100 μL and SK-OV-3 cells were diluted with 10% serum-supplemented medium to a cell density of 15000 cells/well/100 μL, and then seeded on a 96-well plate. On the next day, the culture supernatant of each well was discarded, followed by washing twice with 150 μL of 1% serum-supplemented medium, and 100 μL of 1% serum-supplemented medium was added thereto, followed by culturing for 3 days.
The methanesulfonate of Compound A and gemcitabine were dissolved in DMSO to prepare 100 mmol/L DMSO solutions thereof. The thus-prepared DMSO solutions were diluted sequentially with DMSO to prepare DMSO solutions having a final treatment concentration of 1000-fold dilution. […] […] Compound A and gemcitabine were used with a maximum concentration of 10 μmol/L at a common ratio of 1/3 and 9 concentrations in combination with cisplatin or Carboplatin.
20 μL of Compound A or gemcitabine diluted with the cisplatin solution (60 μmol/L) or the Carboplatin solution (600 μmol/L) was added to each well. In addition, a group in which only a solvent containing no drug was added to wells in which cells were seeded (positive control), and a group in which only a solvent containing no drug was added to wells containing only a medium (negative control) were provided. All groups were set to n=3 well.
The cells were cultured for 3 days after the addition of the drug, and the cell viability was evaluated using a CellTiter Glo (registered trademark) Reagent (Cat. #G7570, manufactured by Promega Corporation) with the intracellular ATP level as an index. The concentration that inhibits cell viability by 50% (IC50 value) was calculated using XLFit software Ver.3 (registered trademark, manufactured by CTC Laboratory Systems Corporation).
The cell viability of each well was determined with the luminescence signal level of the negative control being 0% cell viability and the luminescence signal level of the positive control being 100% cell viability. The average value and standard deviation of the cell viability of each treatment group were calculated to prepare Tables 3 to 6.

[1] = SK-OV-3, with carboplatin 30 μmol/L
[2] = SK-OV-3, with cisplatin 10 μmol/L
[3] = used in combination with cisplatin (10 μmol/L, Table 4)

Compound	viability at 0.001 µM [1]	viability at 0.003 µM [1]	viability at 0.01 µM [1]	viability at 0.03 µM [1]	viability at 0.1 µM [1]	viability at 0.3 µM [1]	viability at 1 µM [1]	viability at 3 µM [1]	viability at 10 µM [1]	viability at 0.001 µM [2]	viability at 0.003 µM [2]	viability at 0.01 µM [2]	viability at 0.03 µM [2]	viability at 0.1 µM [2]	viability at 0.3 µM [2]	viability at 1 µM [2]	viability at 3 µM [2]	viability at 10 µM [2]	IC50 [3]	CI (combination with Carboplatin)	also measured
Nc1ccn([C@@H]2S[C@H](CO)[C@@H](O)[C@@H]2F)c(=O)n1 [Compound A, 1-(2-deoxy-2-fluoro-4-thio-β-D-arabinofuranosyl)cytosine]	90%	88%	84%	82%	80%	73%	41%	20%	17%	83%	82%	81%	76%	43%	14%	11%	10%	10%	82.2 nM	0.3	IC50 (used in combination with carboplatin (30 μmol/L, Table 5)): 676 nM; CI (combination with Cisplatin): 0.2
Nc1ccn([C@@H]2O[C@H](CO)[C@@H](O)C2(F)F)c(=O)n1 [Gemcitabine]	90%	90%	88%	86%	83%	82%	81%	80%	76%	82%	84%	84%	83%	83%	83%	79%	59%	30%	3800 nM	1.0	IC50 value (SK-OV-3, used in combination with carboplatin (30 μmol/L, Table 5)): could not be calculated; CI (combination with Cisplatin): 1.1
